Reference: the supplement of paper PMC10307832

Assays:
Test in all cases: relative viability (nuclei count vs DMSO), 5 days (fraction); higher = more cells survive
NCI-H520 = test system: NCI-H520
Summary of the method: (§1)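 For relative viability, nuclei counts in treated wells were divided by those in vehicle wells. Lung cancer cell lines had been pin-tool dosed in 1536-well plates the day after seeding and cultured for 5 days, then fixed and stained in one step (final 0.05% Triton X-100, 1% formaldehyde, 1 ug/ml Hoechst) and imaged at 4×. Doses were one drug alone or a fixed anchor-drug dose plus five library-drug doses (not always all listed) in √10 steps, and values are duplicate-plate medians.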

NCI-H1648 = test system: NCI-H1648
Summary of the method: as §1

NCI-H727 = test system: NCI-H727
Summary of the method: as §1

NCI-H1623 = test system: NCI-H1623
Summary of the method: as §1

NCI-H2170 = test system: NCI-H2170
Summary of the method: as §1

NCI-H2023 = test system: NCI-H2023
Summary of the method: as §1

IA-LM = test system: IA-LM
Summary of the method: as §1

Calu-6 = test system: Calu-6
Summary of the method: as §1

A549 = test system: A549
Summary of the method: as §1

NCI-H1299 = test system: NCI-H1299
Summary of the method: as §1

EBC-1 = test system: EBC-1
Summary of the method: as §1

NCI-H1703 = test system: NCI-H1703
Summary of the method: as §1

## CN1CCN(CCOc2cc(OC3CCOCC3)c3c(Nc4c(Cl)ccc5c4OCO5)ncnc3c2)CC1 [Saracatinib] + Cc1cc(Nc2cc(N3CCN(C)CC3)nc(Sc3ccc(NC(=O)C4CC4)cc3)n2)n[nH]1 [Tozasertib] (partner 0.1 µM)
NCI-H520; first compound 0.02 µM
  relative viability: 0.407
NCI-H520; first compound 0.6325 µM
  relative viability: 0.383
NCI-H520; first compound 2 µM
  relative viability: 0.314
NCI-H1648; first compound 0.02 µM
  relative viability: 0.629
NCI-H1648; first compound 0.6325 µM
  relative viability: 0.813
NCI-H1648; first compound 2 µM
  relative viability: 0.362
NCI-H727; first compound 0.02 µM
  relative viability: 0.618
NCI-H727; first compound 0.2 µM
  relative viability: 0.506
NCI-H727; first compound 0.6325 µM
  relative viability: 0.525
NCI-H727; first compound 2 µM
  relative viability: 0.454
NCI-H1623; first compound 0.02 µM
  relative viability: 0.447
NCI-H1623; first compound 0.2 µM
  relative viability: 0.443
NCI-H1623; first compound 0.6325 µM
  relative viability: 0.456
NCI-H1623; first compound 2 µM
  relative viability: 0.348
NCI-H2170; first compound 0.02 µM
  relative viability: 0.736
NCI-H2170; first compound 0.2 µM
  relative viability: 0.371
NCI-H2170; first compound 0.6325 µM
  relative viability: 0.723
NCI-H2170; first compound 2 µM
  relative viability: 0.429
NCI-H2023; first compound 0.02 µM
  relative viability: 0.314
NCI-H2023; first compound 0.2 µM
  relative viability: 0.368
NCI-H2023; first compound 0.6325 µM
  relative viability: 0.268
NCI-H2023; first compound 2 µM
  relative viability: 0.262

## Cc1cn(-c2cc(NC(=O)c3ccc(C)c(Nc4nccc(-c5cccnc5)n4)c3)cc(C(F)(F)F)c2)cn1 [Nilotinib] + Cc1cc(Nc2cc(N3CCN(C)CC3)nc(Sc3ccc(NC(=O)C4CC4)cc3)n2)n[nH]1 [Tozasertib] (partner 0.1 µM)
NCI-H520; first compound 0.001 µM
  relative viability: 0.486
NCI-H520; first compound 0.003162 µM
  relative viability: 0.46
NCI-H520; first compound 0.01 µM
  relative viability: 0.428
NCI-H520; first compound 0.03162 µM
  relative viability: 0.462
NCI-H520; first compound 0.1 µM
  relative viability: 0.386
NCI-H1648; first compound 0.003162 µM
  relative viability: 0.395
NCI-H1648; first compound 0.01 µM
  relative viability: 0.389
NCI-H1648; first compound 0.03162 µM
  relative viability: 0.403
NCI-H1648; first compound 0.1 µM
  relative viability: 0.383
NCI-H727; first compound 0.001 µM
  relative viability: 0.599
NCI-H727; first compound 0.003162 µM
  relative viability: 0.624
NCI-H727; first compound 0.01 µM
  relative viability: 0.503
NCI-H727; first compound 0.03162 µM
  relative viability: 0.437
NCI-H727; first compound 0.1 µM
  relative viability: 0.599
NCI-H1623; first compound 0.001 µM
  relative viability: 0.415
NCI-H1623; first compound 0.003162 µM
  relative viability: 0.528
NCI-H1623; first compound 0.01 µM
  relative viability: 0.457
NCI-H1623; first compound 0.03162 µM
  relative viability: 0.401
NCI-H1623; first compound 0.1 µM
  relative viability: 0.885
NCI-H2170; first compound 0.001 µM
  relative viability: 0.734
NCI-H2170; first compound 0.003162 µM
  relative viability: 0.77
NCI-H2170; first compound 0.01 µM
  relative viability: 0.795
NCI-H2170; first compound 0.03162 µM
  relative viability: 0.599
NCI-H2170; first compound 0.1 µM
  relative viability: 0.55
NCI-H2023; first compound 0.001 µM
  relative viability: 0.192
NCI-H2023; first compound 0.003162 µM
  relative viability: 0.225
NCI-H2023; first compound 0.01 µM
  relative viability: 0.224
NCI-H2023; first compound 0.03162 µM
  relative viability: 0.159
NCI-H2023; first compound 0.1 µM
  relative viability: 0.183

## CN1CCN(CCOc2cc(OC3CCOCC3)c3c(Nc4c(Cl)ccc5c4OCO5)ncnc3c2)CC1 [Saracatinib] + COc1cc2c(Oc3ccc(NC(=O)C4(C(=O)Nc5ccc(F)cc5)CC4)cc3F)ccnc2cc1OCCCN1CCOCC1 [Foretinib] (partner 0.25 µM)
IA-LM; first compound 0.02 µM
  relative viability: 1.13
IA-LM; first compound 0.2 µM
  relative viability: 1.28
IA-LM; first compound 0.6325 µM
  relative viability: 1.01
IA-LM; first compound 2 µM
  relative viability: 0.912
Calu-6; first compound 0.02 µM
  relative viability: 0.813
Calu-6; first compound 0.2 µM
  relative viability: 0.579
Calu-6; first compound 0.6325 µM
  relative viability: 0.684
Calu-6; first compound 2 µM
  relative viability: 0.581
NCI-H520; first compound 0.02 µM
  relative viability: 0.761
NCI-H520; first compound 0.6325 µM
  relative viability: 0.611
NCI-H520; first compound 2 µM
  relative viability: 0.523
NCI-H727; first compound 0.02 µM
  relative viability: 0.814
NCI-H727; first compound 0.2 µM
  relative viability: 1.04
NCI-H727; first compound 0.6325 µM
  relative viability: 0.923
NCI-H727; first compound 2 µM
  relative viability: 0.553
NCI-H1623; first compound 0.02 µM
  relative viability: 0.876
NCI-H1623; first compound 0.2 µM
  relative viability: 0.723
NCI-H1623; first compound 0.6325 µM
  relative viability: 0.908
NCI-H1623; first compound 2 µM
  relative viability: 0.681
NCI-H2170; first compound 0.02 µM
  relative viability: 0.989
NCI-H2170; first compound 0.2 µM
  relative viability: 0.705
NCI-H2170; first compound 0.6325 µM
  relative viability: 1.03
NCI-H2170; first compound 2 µM
  relative viability: 0.872
NCI-H2023; first compound 0.02 µM
  relative viability: 0.953
NCI-H2023; first compound 0.2 µM
  relative viability: 0.873
NCI-H2023; first compound 0.6325 µM
  relative viability: 0.656
NCI-H2023; first compound 2 µM
  relative viability: 0.531
A549; first compound 0.02 µM
  relative viability: 0.864
A549; first compound 0.6325 µM
  relative viability: 0.8
A549; first compound 2 µM
  relative viability: 0.841
NCI-H1299; first compound 0.02 µM
  relative viability: 1.11
NCI-H1299; first compound 0.2 µM
  relative viability: 1.08
NCI-H1299; first compound 0.6325 µM
  relative viability: 1.21
NCI-H1299; first compound 2 µM
  relative viability: 1.14
EBC-1; first compound 0.02 µM
  relative viability: 0.0938
EBC-1; first compound 0.2 µM
  relative viability: 0.111
EBC-1; first compound 0.6325 µM
  relative viability: 0.108
EBC-1; first compound 2 µM
  relative viability: 0.106
NCI-H1703; first compound 0.02 µM
  relative viability: 0.38
NCI-H1703; first compound 0.2 µM
  relative viability: 0.319
NCI-H1703; first compound 0.6325 µM
  relative viability: 0.251
NCI-H1703; first compound 2 µM
  relative viability: 0.259
